Here are results for 12 compounds from PubChem BioAssay (NCI).

Holding throughout (assay): NCI anticancer screen, dose series, 48 h
In experiment [1] the test system is SK-MEL-2 melanoma.
Experiment [2] has as its system TK-10 renal.
Experiment [3] relates to NCI-H522 lung.
For experiment [4], the system named is SW-620 colon.
Experiment [5] concerns SF-295 CNS.
Experiment [6] relates to SF-539 CNS.
Experiment [7] has as its system MOLT-4 leukemia.
Experiment [8] deals with K-562 leukemia.
Experiment [9] relates to IGROV1 ovarian.

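These data come from cells grown in 96-well plates and exposed to compound for 48 hours at five concentrations. GI50 marks 50% less growth. At the TGI there is no net growth.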

Consider `COc1ccc2c(c1)[n+](=O)c(C(=O)c1cccs1)c(C(F)(F)F)n2[O-]`, for which the GI50 was 10.8 µM in experiment [1]; 1.07 µM in experiment [2]; 2 µM in experiment [3]; 8.43 µM in [4]; 2.89 µM in [5]; 5.1 µM in experiment [6]. Also, the GI50 in experiment [7] is 24.9 µM; in experiment [8], 2.56 µM. Further, the TGI is greater than 50 µM in experiment [1]; 8.77 µM in [2]; 12.8 µM in experiment [3]; greater than 50 µM in [4]; 16.5 µM in experiment [5]; 16.2 µM in [6]. The TGI in experiment [7] and in [8] was greater than 50 µM throughout.
On to `CC(C)N(C(=O)c1cccc(C(=O)N(C(C)C)C(C)C)c1)C(C)C`, for which the TGI in experiment [1], in experiment [9], in experiment [2], in [3], in experiment [4] and in experiment [5] was greater than 100 µM in each case. The TGI in experiment [6], in [7] and in experiment [8] was greater than 100 µM throughout.
For the compound `C#CC1(O)CCC2C3CCc4cc(Oc5nc(F)nc(-c6c7ccccc7c7n6CCS7)n5)ccc4C3CC[C@@]21C` (stereo partly specified), the TGI in experiment [1] was 23.9 µM; in experiment [9] it was greater than 100 µM; in experiment [2], 71.3 µM; in [3], 20.9 µM; in [4], greater than 100 µM; in [5], 30.1 µM. Further, the TGI is 33 µM in [6], greater than 100 µM in experiment [7] and greater than 100 µM in experiment [8].
As to `COc1ccccc1N=Nc1c(-c2ccccc2)nn(C(=O)CC(=O)Nc2cccc(C)c2)c1-c1ccccc1`, the TGI in [9], in experiment [2], in experiment [3], in experiment [4], in experiment [5] and in [6] was greater than 100 µM in each case. In addition, the TGI in [7] worked out at 50.6 µM; in experiment [8] it was 52.7 µM.
`COC(=O)CCC(NC(=S)N/N=C(\C)c1ccc[nH]1)C(=O)OC` (stereo unspecified): the TGI in experiment [1], in experiment [9], in experiment [2], in experiment [3], in experiment [4] and in experiment [5] was greater than 100 µM in each case. Further, the TGI in [6], in [7] and in experiment [8] was greater than 100 µM in each case.
On to `CC(C)/C=C1\CCC(CN2CCOCC2)C1=O` (stereo unspecified), for which the TGI in experiment [1] was 35.6 µM; in experiment [9], 20.8 µM; in experiment [2], 29.7 µM; in experiment [3] it was 3.8 µM; in [4], 8.08 µM; in experiment [5] it was greater than 77.7 µM. Moreover, the TGI in [6] turned out to be 29.3 µM; in [7], 10.2 µM; in [8] it was 9.06 µM.
On to `ClC(Cl)=C(Cl)C1(Cl)CC1COCc1ccccc1` (stereo unspecified), for which the TGI was 36.7 µM in experiment [1]; greater than 100 µM in experiment [9]; greater than 100 µM in experiment [2]; 44.2 µM in experiment [3]; greater than 100 µM in experiment [4]; 96.2 µM in [5]. For the same compound, the values for the TGI in experiment [6], in [7] and in experiment [8] were greater than 100 µM, 55.1 µM and greater than 100 µM, respectively.
On to `C=CCn1c(=S)sc2c(C(=O)OCC)c3c(C)cc(C)cn3c2c1=O`, for which the TGI in experiment [1], in experiment [9], in [2], in experiment [3], in experiment [4] and in [5] was greater than 100 µM in each case. Moreover, the TGI in [6], in experiment [7] and in experiment [8] was greater than 100 µM each time.
On to `O=c1cccccc1[O-].O=c1cccccc1[O-].O=c1cccccc1[O-].[Eu+3]`, for which the TGI in [1] was greater than 100 µM; in [9], greater than 100 µM; in [2], greater than 100 µM; in experiment [3], 54.8 µM; in experiment [4], greater than 100 µM; in experiment [5], greater than 100 µM. The TGI in [6], in [7] and in [8] was greater than 100 µM in each case. In experiment [6], the GI50 was 30.2 µM.
For `Cc1c(C(=O)C/C(=N/NC(=O)c2ccccc2)C(=O)Nc2ccc(Cl)cc2)[n+](=O)c2ccccc2n1[O-]`, the TGI in [1], in experiment [9], in experiment [2], in [3], in experiment [4] and in experiment [5] was greater than 100 µM each time. For the same compound, the TGI in experiment [6], in [7] and in experiment [8] was greater than 100 µM in each case.
Turning to `CCC[CH2][Sn]([CH2]CCC)([O]C(=O)c1cc(OC)c(OC)cc1OC)[O][Sn]([CH2]CCC)([CH2]CCC)[O]C(=O)c1cc(OC)c(OC)cc1OC`, the GI50 in experiment [1] is 0.173 µM; in experiment [9], 1.17 µM; in [2], 1.53 µM; in [4] it was 0.182 µM; in experiment [5], 1.1 µM; in experiment [6], 0.314 µM. Besides, the GI50 in experiment [7] was 0.101 µM; in experiment [8] it was 0.0812 µM. In addition, the TGI came to 0.824 µM in experiment [1]; 2.68 µM in experiment [9]; 2.86 µM in experiment [2]; 0.0556 µM in experiment [3]; 0.536 µM in experiment [4]; 2.41 µM in experiment [5]. In addition, the TGI in experiment [6] stood at 1.01 µM; in experiment [7], 0.786 µM; in experiment [8], 8.43 µM.
As for `CNC(=O)NCC1OC(n2cnc3c(NC(=O)Nc4ccccc4)ncnc32)C(O[Si](C)(C)C(C)(C)C)C1O[Si](C)(C)C(C)(C)C` (stereo unspecified), the GI50 is 2.45 µM in experiment [1]; 2.74 µM in experiment [9]; 4.29 µM in [2]; 2.39 µM in experiment [3]; 3.84 µM in [5]; 3.07 µM in experiment [6]. For the same compound, the TGI is 5.54 µM in experiment [1]; 7.76 µM in [9]; 72.6 µM in experiment [2]; 7.14 µM in experiment [3]; 31.8 µM in [5]; 13 µM in experiment [6].
